Experimental data: ChEMBL document CHEMBL1131081, “Beta-amino-thiols inhibit the zinc metallopeptidase activity of tetanus toxin light chain” (J Med Chem, 1998)

assay: Binding affinity against S1 subsite of the Tetanus neurotoxin (TeNt); design: species or system Clostridium tetani

`NC(CS)c1cccc(S(N)(=O)=O)c1` (stereo unspecified) and `NC(CS)c1cccc(S(=O)(=O)O)c1` (stereo unspecified) are within 1.5-fold of each other in Ki: 35 µM for the first, 40 µM for the second.

Compared with `NCC(CS)CCS(=O)(=O)O` (stereo unspecified), `NC(CS)CCS(N)(=O)=O` (stereo unspecified) is 5-fold lower in Ki: 500 µM for the first, 100 µM for the second.

Compared with `CN(C)C(=O)c1cccc(C(N)CS)c1` (stereo unspecified), `NC(=O)c1cccc(C(N)CS)c1` (stereo unspecified) is 2-fold lower in Ki: 250 µM for the first, 125 µM for the second. The second binds more tightly here.
